In patent US4633014A, “Substituted 3-hydrazinopropionates” (priority 1983, dated 1986):
Counter-ions that a name gives are not always drawn.

Key:
[1] = tested on: arrhythmia induced by an intravenous administration of calcium chloride; experiment: Antiarrhythmic activity on a model of arrhythmia induced by intravenous calcium chloride (antagonism to calcium) in mice; assay type: in vivo; conditions: white mice, 20-40 minutes before
Summary of the method: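 Urethane-anaesthetised (1,200 mg/kg i.p.) white mice of both sexes, 18-25 g, with lead II ECG; 2% CaCl2 infused into the tail vein at 0.01 ml per 2 sec. Doses of CaCl2 producing arrhythmia and heart arrest were determined. Test compounds were given i.p. 20-40 min before infusion.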

[2] = tested on: white mice; experiment: in vivo
Summary of the method: (§1)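 Acute toxicity in white mice of 20-25 g, with compounds given intraperitoneally as aqueous solutions or Twin-80 suspensions. Animals observed for 10 days.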

[3] = in vivo; conditions: mouse, in vivo, ip
Summary of the method: as §1

[4] = currently employed in medicine; cited from earlier work
[5] = white mice, intraperitoneal, relative to quinidine

| Structure (SMILES) | Dose of calcium chloride causing arrythmia in animals under experiment ([1]; intraperitoneal dose 5 mg/kg) | Dose of calcium chloride causing death in animals under experiment ([1]; intraperitoneal dose 5 mg/kg) | Dose of calcium chloride causing arrythmia in animals under experiment ([1]; intraperitoneal dose 15 mg/kg) | Dose of calcium chloride causing death in animals under experiment ([1]; intraperitoneal dose 15 mg/kg) | Relative toxisity to quinidine [2, 5] | LD50 at 240 h [3] [mg/kg] | Relative toxisity to quinidine ([2]; mouse, in vivo, ip, 14400 min) | Dose of calcium chloride causing arrythmia in animals under experiment ([1]; intraperitoneal dose 10 mg/kg) | Dose of calcium chloride causing death in animals under experiment ([1]; intraperitoneal dose 10 mg/kg) | Dose of calcium chloride causing arrythmia in animals under experiment ([1]; intraperitoneal dose 30 mg/kg) | Dose of calcium chloride causing death in animals under experiment ([1]; intraperitoneal dose 30 mg/kg) | acute toxicity (in words, background) [4] | Dose of calcium chloride causing arrythmia in animals under experiment ([1]; intraperitoneal dose 3 mg/kg) | Dose of calcium chloride causing death in animals under experiment ([1]; intraperitoneal dose 3 mg/kg) |
| --- | --- | --- | --- | --- | --- | --- | --- | --- | --- | --- | --- | --- | --- | --- |
| CCC(=O)N(CCC#N)N(C)C [I-62, 3-(2,2-dimethyl-1-propionylhydrazino)-propionitrile] | 96,5 mg/kg | 120,5 mg/kg | 98,7 mg/kg | 118,5 mg/kg | 5,9 | 930 | – | – | – | – | – | – | – | – |
| CN(C)N(CCC#N)C(=O)c1ccccc1F [I-63, 3-(2,2-dimethyl-1-2'-fluorobenzoylhydrazino)propionitrile] | 101,5 mg/kg | 117,3 mg/kg | 112,3 mg/kg | 128,0 mg/kg | – | 1850 | 11,8 | – | – | – | – | – | – | – |
| CN(C)N(CCC(=O)O)C(=O)Nc1ccccc1 [I-64, Potassium salt of 3-(2,2-dimethyl-1-phenylcarbamoylhydrazino)-methylpropionate] | 98 mg/kg | 147 mg/kg | 141,7 mg/kg | 163 mg/kg | – | 1750 | 11,2 | – | – | – | – | – | – | – |
| CCN(CC)CCNC(=O)c1ccc(N)cc1 [Procaineamide, procaine amide, reference compound] | – | – | – | – | – | 290 | – | 116,0 mg/kg | 120,0 mg/kg | 127,0 mg/kg | 138,0 mg/kg | high acute toxicity | – | – |
| C=C[C@H]1C[N@@]2CC[C@H]1C[C@@H]2[C@@H](O)c1ccnc2ccc(OC)cc12 [Quinidine, quinidine, reference compound] | – | – | – | – | 1 | 156 | – | 120,8 mg/kg | 133,5 mg/kg | – | – | high acute toxicity | 126,9 mg/kg | 136,0 mg/kg |
